Bridge positions count the residues as written; N and C are the ends. Ends that are not written are not given here.
System: hNav1.8
Assay: Whole-cell patch clamp, hNav1.8 in HEK293 cells
Type: cell-based, human
Conditions: legend of Figure S3; concentration not given; 50 ms step to -10 mV, held at -80 mV
Protocol: Electrophysiological studies.
Currents were recorded from experimental cells using whole-cell patch clamptechnique at room temperature (22–25 °C). The patch pipettes were fabricated from borosilicate glass tubing using a two-stage vertical microelectrode puller (PC-10, Narishige, Japan). After establishing the whole-cell recording configuration, the resting potential was held at −80 mV for at least 5 min to allow adequate equilibration between the micropipette solution and the cell interior. The micropipette solution of sodium currents for dorsal root ganglion neurons contained (in mM): 105 CsF, 35 NaCl, 10 HEPES, 10 EGTA (pH 7.4). The external solution contained (in mM): 50 NaCl, 100 TEA.Cl, 2 KCl, 1.5 CaCl2, 10 HEPES, 1 MgCl2, and 5 glucose (pH 7.4). K+ currents were recorded using an internal solution containing the followings (in mM): KCl 140, MgCl2 2.5, HEPES 10, and EGTA 11 (pH 7.2). The external bathing solution contained the followings (in mM): NaCl 150, KCl 5, CaCl2 25, MgCl2 12, HEPES 10, and D-glucose 10 (pH 7.2). Calcium channel currents were measured using Ba2+ as the charge carrier. The external solution contained (in mM): 160 TEA-Cl, 10 HEPES, 2 BaCl2, 10 glucoses, adjusted to pH 7.4 with TEA-OH. […]
Figure S1. […] The absorbance of the elution was monitored at 280 nm. […]

Q: How did the “effect on hNav1.8” value turn out when “LCSENGDCAADECCVDTVFEGDMVTRSCEKTTGNFTECPGLTPIA (disulfide 2-14, 8-28, 13-38) [ISTX-I]” was run?
A: No effect

From PMC4942781, “A sodium channel inhibitor ISTX-I with a novel structure provides a new hint at the evolutionary link between two toxin folds” (Scientific Reports, 2016)
